Assay results as given in ChEMBL document CHEMBL1287746, “The discovery of tricyclic pyridone JAK2 inhibitors. Part 1: hit to lead” (Bioorg Med Chem Lett, 2010).
Converted amounts (≈) assume the structure as drawn.

Legend:
[1] = biological target: T1, Tyrosine-protein kinase JAK2 (Homo sapiens, UniProt O60674); assay: Inhibition of JAK2 in cell-free system
[2] = Aqueous solubility of the compound at pH 7; type: physicochemical
[3] = Volume of distribution in Sprague-Dawley rat at 1 mg/kg, iv; type: ADME, organism-based; design: dose 1 mg/kg, route intravenous; settings: in vivo
[4] = Clearance in Sprague-Dawley rat at 1 mg/kg, iv; type: ADME, organism-based; design: dose 1 mg/kg, route intravenous; settings: in vivo
[5] = biological target: T1, Tyrosine-protein kinase JAK2; assay: Inhibition of JAK2 expressed in human Du-145 cells; type: cell-based
[6] = Lipophilicity log D of the compound at pH 7.4 by HPLC; type: physicochemical; settings: buffer
Mus musculus [7] = assay: Inhibition of JAK2 in erythropoietin-treated […] mouse assessed as reduction in pSTAT5 level in whole blood at 90 mg/kg, po measured after 1 and 3 hrs; type: functional, organism-based; design: dose 90 mg/kg, route oral
Mus musculus [8] = assay: Inhibition of JAK2 in erythropoietin-treated […] mouse assessed as reduction in pSTAT5 level in whole blood at 30 mg/kg, po measured after 1 and 3 hrs; type: functional, organism-based; design: dose 30 mg/kg, route oral

T1 sequence (O60674 whole entry): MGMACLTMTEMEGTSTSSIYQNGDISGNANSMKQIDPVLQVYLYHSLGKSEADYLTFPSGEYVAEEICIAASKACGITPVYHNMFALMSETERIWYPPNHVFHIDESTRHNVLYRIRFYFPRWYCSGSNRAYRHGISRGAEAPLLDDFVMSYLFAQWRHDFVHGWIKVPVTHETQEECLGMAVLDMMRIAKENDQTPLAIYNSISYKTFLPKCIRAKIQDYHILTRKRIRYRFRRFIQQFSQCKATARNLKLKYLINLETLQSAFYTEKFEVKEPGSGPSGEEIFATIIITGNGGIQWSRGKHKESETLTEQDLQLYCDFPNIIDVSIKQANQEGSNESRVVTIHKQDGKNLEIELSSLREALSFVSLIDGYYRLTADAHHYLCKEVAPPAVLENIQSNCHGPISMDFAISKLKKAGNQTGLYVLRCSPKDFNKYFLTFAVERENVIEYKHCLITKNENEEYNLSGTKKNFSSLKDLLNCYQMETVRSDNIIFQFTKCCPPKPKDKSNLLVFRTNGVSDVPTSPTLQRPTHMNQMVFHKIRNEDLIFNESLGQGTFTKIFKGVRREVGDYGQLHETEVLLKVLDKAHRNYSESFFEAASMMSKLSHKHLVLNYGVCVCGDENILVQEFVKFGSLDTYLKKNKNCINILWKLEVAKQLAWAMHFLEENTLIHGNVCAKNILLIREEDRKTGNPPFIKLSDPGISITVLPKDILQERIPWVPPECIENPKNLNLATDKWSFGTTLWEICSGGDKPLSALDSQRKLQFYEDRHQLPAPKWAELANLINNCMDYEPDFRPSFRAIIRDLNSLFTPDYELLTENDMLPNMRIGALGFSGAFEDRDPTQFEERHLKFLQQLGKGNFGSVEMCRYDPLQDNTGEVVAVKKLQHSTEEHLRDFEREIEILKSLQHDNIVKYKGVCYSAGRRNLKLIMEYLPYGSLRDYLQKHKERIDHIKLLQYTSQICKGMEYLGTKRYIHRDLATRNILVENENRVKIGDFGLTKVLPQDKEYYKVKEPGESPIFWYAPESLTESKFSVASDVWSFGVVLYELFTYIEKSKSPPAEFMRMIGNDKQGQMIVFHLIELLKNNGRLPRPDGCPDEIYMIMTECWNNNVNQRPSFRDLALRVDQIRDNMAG

| IC50 [1] [nM] | SMILES | also measured |
| --- | --- | --- |
| 139 | CC(C)Nc1nc2cc[nH]c(=O)c2c2cc(F)ccc12 |  |
| 27 | CC(C)[C@H](C)Nc1nc2cc[nH]c(=O)c2c2cc(F)ccc12 |  |
| 750 | O=c1[nH]ccc2nc(NC3CC(F)(F)C3)c3ccc(F)cc3c12 |  |
| 1 | CC(C)[C@@H](Nc1nc2cc[nH]c(=O)c2c2cc(F)ccc12)C(F)(F)F | solubility [2]: 3 µM (≈ 1.06 µg/mL); Vd [3]: 6 L/kg; clearance [4]: 21 mL/min/kg; IC50 [5]: 50 nM; logD [6]: 3.34 |
| 55 | CC(C)[C@H](Nc1nc2cc[nH]c(=O)c2c2cc(F)ccc12)C(F)(F)F |  |
| 274 | CC(C)(CO)CNc1nc2cc[nH]c(=O)c2c2cc(F)ccc12 |  |
| 1 | CC(C)[C@@H](Nc1nc2cc[nH]c(=O)c2c2cnccc12)C(F)(F)F | solubility [2]: 120 µM (≈ 40.4 µg/mL); IC50 (Mus musculus [7]): 2700 nM; Vd [3]: 8 L/kg; IC50 (Mus musculus [8]): 2700 nM; clearance [4]: 68 mL/min/kg; IC50 [5]: 40 nM; logD [6]: 2.33 |
| 1400 | O=c1[nH]ccc2nc(NCc3ccncc3)c(-c3ccccc3)cc12 |  |
| 29000 | CC(C)(C)CNc1nc2cc[nH]c(=O)c2cc1-c1ccc(F)cc1 |  |
| 3940 | O=c1[nH]ccc2nc(N3CCC(F)(F)C3)c(-c3ccc(F)cc3)cc12 |  |
| 11800 | CC(Nc1nc2cc[nH]c(=O)c2cc1-c1ccc(F)cc1)c1cc(F)c(Cl)cc1Cl (stereo unspecified) |  |
| 630 | CC(Nc1nc2cc[nH]c(=O)c2cc1-c1ccccn1)C(C)(C)C (stereo unspecified) |  |
| 11500 | CC(Nc1nc2cc[nH]c(=O)c2cc1-c1nc(-c2ccccc2)no1)C(C)(C)C (stereo unspecified) |  |
| 8350 | CC(Nc1nc2cc[nH]c(=O)c2cc1C(=O)NCCN(C)C)C(C)(C)C (stereo unspecified) |  |
| 26 | CC(Nc1nc2cc[nH]c(=O)c2c2cc(F)ccc12)C(C)(C)C (stereo unspecified) |  |
| 3160 | CC(C)(CN)CNc1nc2cc[nH]c(=O)c2c2cc(F)ccc12 |  |
| 512 | O=c1[nH]ccc2nc(NCC3CCS(=O)(=O)C3)c3ccc(F)cc3c12 (stereo unspecified) |  |
| 1110 | O=c1[nH]ccc2nc(NCc3ccccn3)c3ccc(F)cc3c12 |  |
| 53 | O=c1[nH]ccc2nc(NCc3c(Cl)cccc3Cl)c3ccc(F)cc3c12 |  |
| 4100 | O=c1[nH]ccc2nc(Nc3cccc(F)c3)c3ccc(F)cc3c12 |  |
| 4 | O=c1[nH]ccc2nc(Nc3c(F)cc(F)cc3Cl)c3ccc(F)cc3c12 |  |
| 14 | O=c1[nH]ccc2nc(Nc3c(Cl)cccc3Cl)c3ccc(F)cc3c12 |  |
| 75 | O=c1[nH]ccc2nc(NC3CCC3)c3ccc(F)cc3c12 |  |

| SMILES | IC50 [1] [nM] | also measured |
| --- | --- | --- |
| CN1CCC(N(c2nc3cc[nH]c(=O)c3c3cc(F)ccc23)C2CC2)CC1 | 540 |  |
